In ChEMBL document CHEMBL1649488, “In vitro activities of echinocandins against Candida krusei determined by three methods: MIC and minimal fungicidal concentration measurements and time-kill studies” (2009):
In brackets after ≈: the same amount, converted by molar mass. Starred links: 1 amine or outer side, 2 acyl side, 3 side chain; linkers in the order of their positions; H or OH if unused. Positions of bridges follow the written chain, without caps; N, C: chain ends. Non-standard residues stand in square brackets, D forms with d. Residues, ends and D or L forms follow the SMILES beside them. *: point of attachment. hTyr(3S-OH,4S-OH,3'-OSO3H) = N[C@H](C(=O)O)[C@H](O)[C@@H](O)c1ccc(O)c(OS(=O)(=O)O)c1; Orn(4R-OH,5R-OH) = O=C([C@H](C[C@@H](O)[C@@H](O)N[*:3])N[*:1])[*:2]; Pro(3S-OH,4S-Me) = C[C@H]1CN[C@H](C(=O)O)[C@H]1O; X1 = CCCCCOc1ccc(-c2cc(-c3ccc(C(=O)*)cc3)no2)cc1; Gln(3R-OH) = NC(=O)C[C@@H](O)[C@H](N)C(=O)O; Hyp = O=C(O)[C@@H]1C[C@@H](O)CN1

Tests used:
Type in all cases: functional
[1] = tested on: Pichia kudriavzevii; test: Antifungal activity against Candida krusei ATCC 6258 bloodstream forms assessed as time to achieve 50% fungal growth reduction at 1 mg/L by time-kill analysis
[2] = tested on: Pichia kudriavzevii; test: Antifungal activity against Candida krusei EU123 bloodstream forms after 24 hrs by time-kill analysis; conditions: EU123, 24 h
[3] = tested on: Pichia kudriavzevii; test: Antifungal activity against Candida krusei ATCC 6258 bloodstream forms assessed as time to achieve 90% fungal growth reduction at 4 mg/L by time-kill analysis
[4] = tested on: Pichia kudriavzevii; test: Antifungal activity against Candida krusei ATCC 6258 bloodstream forms assessed as time to achieve 99.9% fungal growth reduction at 16 mg/L by time-kill analysis
[5] = tested on: Pichia kudriavzevii; test: Antifungal activity against Candida krusei ATCC 6258 bloodstream forms assessed as minimum concentration producing >= 100% growth reduction after 48 hrs by M27-A3 microdilution method; conditions: ATCC 6258, 48 h
[6] = tested on: Pichia kudriavzevii; test: Antifungal activity against Candida krusei ATCC 6258 bloodstream forms assessed as time to achieve 90% fungal growth reduction at 1 mg/L by time-kill analysis
[7] = tested on: Pichia kudriavzevii; test: Antifungal activity against Candida krusei CK2 bloodstream forms after 24 hrs by time-kill analysis; conditions: CK2, 24 h
[8] = tested on: Pichia kudriavzevii; test: Antifungal activity against Candida krusei ATCC 6258 bloodstream forms assessed as time to achieve 50% fungal growth reduction at 16 mg/L by time-kill analysis
[9] = tested on: Pichia kudriavzevii; test: Antifungal activity against Candida krusei CK1 bloodstream forms after 24 hrs by time-kill analysis; conditions: CK1, 24 h
[10] = tested on: Pichia kudriavzevii; test: Antifungal activity against Candida krusei ATCC 6258 bloodstream forms assessed as time to achieve 90% fungal growth reduction at 0.25 mg/L by time-kill analysis
[11] = tested on: Pichia kudriavzevii; test: Antifungal activity against Candida krusei ATCC 6258 bloodstream forms assessed as minimum concentration producing >= 50% growth reduction after 48 hrs by M27-A3 microdilution method; conditions: ATCC 6258, 48 h
[12] = tested on: Pichia kudriavzevii; test: Antifungal activity against Candida krusei CY118 bloodstream forms after 24 hrs by time-kill analysis; conditions: CY118, 24 h
[13] = tested on: Pichia kudriavzevii; test: Antifungal activity against Candida krusei ATCC 6258 bloodstream forms after 24 hrs by time-kill analysis; conditions: ATCC 6258, 24 h
[14] = tested on: Pichia kudriavzevii; test: Antifungal activity against Candida krusei ATCC 6258 bloodstream forms assessed as time to achieve 99% fungal growth reduction at 0.25 mg/L by time-kill analysis
[15] = tested on: Pichia kudriavzevii; test: Fungicidal activity against Candida krusei CY118 bloodstream forms after 24 hrs by time-kill analysis; conditions: CY118, 24 h
[16] = tested on: Pichia kudriavzevii; test: Fungicidal activity against Candida krusei CK1 bloodstream forms after 24 hrs by time-kill analysis; conditions: CK1, 24 h
[17] = tested on: Pichia kudriavzevii; test: Antifungal activity against Candida krusei ATCC 6258 bloodstream forms assessed as time to achieve 50% fungal growth reduction at 4 mg/L by time-kill analysis
[18] = tested on: Pichia kudriavzevii; test: Antifungal activity against Candida krusei ATCC 6258 bloodstream forms assessed as time to achieve 50% fungal growth reduction at 0.25 mg/L by time-kill analysis
[19] = tested on: Pichia kudriavzevii; test: Antifungal activity against Candida krusei CK18 bloodstream forms after 24 hrs by time-kill analysis; conditions: CK18, 24 h
[20] = tested on: Pichia kudriavzevii; test: Fungicidal activity against Candida krusei CK6 bloodstream forms after 24 hrs by time-kill analysis; conditions: CK6, 24 h
[21] = tested on: Pichia kudriavzevii; test: Fungicidal activity against Candida krusei EU123 bloodstream forms after 24 hrs by time-kill analysis; conditions: EU123, 24 h
[22] = tested on: Pichia kudriavzevii; test: Fungicidal activity against Candida krusei ATCC 6258 bloodstream forms after 24 hrs by time-kill analysis; conditions: ATCC 6258, 24 h
[23] = tested on: Pichia kudriavzevii; test: Fungicidal activity against Candida krusei EU220 bloodstream forms after 24 hrs by time-kill analysis; conditions: EU220, 24 h
[24] = tested on: Pichia kudriavzevii; test: Fungicidal activity against Candida krusei CK2 bloodstream forms after 24 hrs by time-kill analysis; conditions: CK2, 24 h
[25] = tested on: Pichia kudriavzevii; test: Fungicidal activity against Candida krusei CK18 bloodstream forms after 24 hrs by time-kill analysis; conditions: CK18, 24 h
[26] = tested on: Pichia kudriavzevii; test: Antifungal activity against Candida krusei EU220 bloodstream forms after 24 hrs by time-kill analysis; conditions: EU220, 24 h
[27] = tested on: Pichia kudriavzevii; test: Antifungal activity against Candida krusei CK6 bloodstream forms after 24 hrs by time-kill analysis; conditions: CK6, 24 h
[28] = tested on: Pichia kudriavzevii; test: Antifungal activity against Candida krusei ATCC 6258 bloodstream forms assessed as minimum concentration producing >= 50% growth reduction after 24 hrs by M27-A3 microdilution method; conditions: ATCC 6258, 24 h
[29] = tested on: Pichia kudriavzevii; test: Antifungal activity against Candida krusei ATCC 6258 bloodstream forms assessed as time to achieve 99% fungal growth reduction at 4 mg/L by time-kill analysis
[30] = tested on: Pichia kudriavzevii; test: Antifungal activity against Candida krusei ATCC 6258 bloodstream forms assessed as time to achieve 99% fungal growth reduction at 16 mg/L by time-kill analysis
[31] = tested on: Pichia kudriavzevii; test: Antifungal activity against Candida krusei ATCC 6258 bloodstream forms assessed as minimum concentration producing >= 100% growth reduction after 24 hrs by M27-A3 microdilution method; conditions: ATCC 6258, 24 h
[32] = tested on: Pichia kudriavzevii; test: Fungicidal activity against Candida krusei ATCC 6258 bloodstream forms after 48 hrs by M27-A3 microdilution method
[33] = tested on: Pichia kudriavzevii; test: Antifungal activity against Candida krusei ATCC 6258 bloodstream forms assessed as time to achieve 99% fungal growth reduction at 1 mg/L by time-kill analysis
[34] = tested on: Pichia kudriavzevii; test: Antifungal activity against Candida krusei ATCC 6258 bloodstream forms assessed as time to achieve 99.9% fungal growth reduction at 1 mg/L by time-kill analysis
[35] = tested on: Pichia kudriavzevii; test: Antifungal activity against Candida krusei ATCC 6258 bloodstream forms assessed as time to achieve 99.9% fungal growth reduction at 0.25 mg/L by time-kill analysis
[36] = tested on: Pichia kudriavzevii; test: Antifungal activity against Candida krusei ATCC 6258 bloodstream forms assessed as time to achieve 90% fungal growth reduction at 16 mg/L by time-kill analysis
[37] = tested on: Pichia kudriavzevii; test: Antifungal activity against Candida krusei ATCC 6258 bloodstream forms assessed as time to achieve 99.9% fungal growth reduction at 4 mg/L by time-kill analysis

CCCCCOc1ccc(-c2cc(-c3ccc(C(=O)N[C@H]4C[C@@H](O)[C@@H](O)NC(=O)[C@@H]5[C@@H](O)[C@@H](C)CN5C(=O)[C@H]([C@H](O)CC(N)=O)NC(=O)[C@H]([C@H](O)[C@@H](O)c5ccc(O)c(OS(=O)(=O)O)c5)NC(=O)[C@@H]5C[C@@H](O)CN5C(=O)[C@H]([C@@H](C)O)NC4=O)cc3)no2)cc1 [MICAFUNGIN] (X1-[Orn(4R-OH,5R-OH)]T[Hyp][hTyr(3S-OH,4S-OH,3'-OSO3H)][Gln(3R-OH)][Pro(3S-OH,4S-Me)]; lactam 1-C)
Time [1]: 3.1 h
MIC [2]: 0.12 mg/L (≈ 0.0945 µM)
Time [3]: 10.63 h
Time [4]: 25.91 h
MIC50 [5]: 0.5 mg/L (≈ 0.394 µM)
MIC90 [5]: 0.5 mg/L (≈ 0.394 µM)
Time [6]: 10.2 h
MIC [7]: 0.5 mg/L (≈ 0.394 µM)
Time [8]: 2.6 h
MIC [9]: 0.25 mg/L (≈ 0.197 µM)
Time [10]: 10.3 h
MIC50 [11]: 0.5 mg/L (≈ 0.394 µM)
MIC90 [11]: 0.5 mg/L (≈ 0.394 µM)
MIC [12]: 1 mg/L (≈ 0.787 µM)
MIC [13]: 0.12 mg/L (≈ 0.0945 µM)
Time [14]: 20.6 h
MFC [15]: 16 mg/L (≈ 12.6 µM)
MFC [16]: 0.5 mg/L (≈ 0.394 µM)
Time [17]: 3.2 h
Time [18]: 3.1 h
MIC [19]: 0.25 mg/L (≈ 0.197 µM)
MFC [20]: 0.5 mg/L (≈ 0.394 µM)
MFC [21]: 0.5 mg/L (≈ 0.394 µM)
MFC [22]: 0.25 mg/L (≈ 0.197 µM)
MFC [23]: 0.25 mg/L (≈ 0.197 µM)
MFC [24]: 0.5 mg/L (≈ 0.394 µM)
MFC [25]: 0.5 mg/L (≈ 0.394 µM)
MIC [26]: 0.25 mg/L (≈ 0.197 µM)
MIC [27]: 0.5 mg/L (≈ 0.394 µM)
MIC50 [28]: 0.25 mg/L (≈ 0.197 µM)
MIC90 [28]: 0.5 mg/L (≈ 0.394 µM)
Time [29]: 21.25 h
Time [30]: 17.28 h
MIC50 [31]: 0.5 mg/L (≈ 0.394 µM)
MIC90 [31]: 0.5 mg/L (≈ 0.394 µM)
MFC50 [32]: 0.5 mg/L (≈ 0.394 µM)
MFC90 [32]: 0.5 mg/L (≈ 0.394 µM)
MFC ([32]; Pichia kudriavzevii, ATCC 6258, 48 h): 0.25 mg/L (≈ 0.197 µM)
Time [33]: 20.5 h
Time [34]: 30.7 h
Time [35]: 31 h
Time [36]: 8.64 h
Time [37]: 31.88 h
